Test results as given in patent publication US8906904B2, “Alkoxy pyrazoles as soluble guanylate cyclase activators” (Boehringer Ingelheim International GmbH, priority 2012, dated 2014).
≈ marks a conversion by molar mass, not a printed value.

Legend:
[1] = Assessment of solubility (McIlvaine buffers, 24 h shake, UPLC-UV); type: physicochemical; settings: kinetic from dmso stock
Procedure: Solubility is measured by the following method.
100 uL, 10 mM DMSO stock solution of each compound is prepared in a 96 well plate format. The experiment is done in single determination at 3 pH values (2.2, 4.5 and 6.8). For each pH and one reference, 40 uL of each compound is needed.
McIlvaine pH 2.2: To 2.076 g citric acid monohydrate and 0.043 g Na2HPO4×2H2O add 100 ml deionized water
McIlvaine pH 4.5: To 1.166 g citric acid monohydrate and 1.585 g Na2HPO4×2H2O add 100 ml deionized water
McIlvaine pH 6.8: To 0.476 g citric acid monohydrate and 2.753 g Na2HPO4×2H2O add 100 ml deionized water
With a suitable liquid handling device (Multipette® or a liquid handler) 390 uL of each buffer solution and 10 uL of compound is added to each well of a 96 deep well plate. The plates are covered firmly and shaken for 24 h on an over head shaker (at 54 RPM) at room temperature. The DMSO content in the final buffer is 2.5% v/v.
After 24 h the plates are centrifuged to remove droplets on the lid before opening (for ˜5 min at 2500 RPM).
The filtration is done under vacuum with Millipore 96 well filter plate. Filtrate is collected in a deep well plate and transferred to a suitable plate for UPLC analysis.
The reference plate is prepared by adding 10 uL of compound to 390 uL of 50:50 acetonitrile/water in a 96 deep well plate and transferred to a suitable plate for UPLC analysis. Wells are checked visually for precipitation, any presence noted under comments in reported results.
The samples are measured with UPLC-UV using the chromatographic method described below.
Waters Empower®2 software is used for generating Sample Sets (according to the plate layout), Sample Set Methods and Instrument Methods.
One Sample Set comprises the methods for three 96 well plates (one reference plate and two sample plates, and includes one Sample Set Method and one Instrument Method).
3. Data Processing and Analysis
The UV chromatograms collected at 254 nm are integrated and processed.
It is assumed that the compound is completely dissolved in the reference solution (50:50 acetonitrile/water)

[2] = molecular target: T1, human soluble guanylate cyclase alpha 1 and beta 1 subunits (sGC) (Homo sapiens, UniProt Q02108+Q02153); assay: sGC cellular activator assay (cGMP, HTRF); type: cell-based; settings: CHO cells stably expressing human sGC alpha 1/beta 1, preincubated with 40 microM ODQ; cGMP readout; assay run with and without 50% human serum, Table 2 does not say which
T1 construct: expressed in transfected cells; host or cells: Chinese hamster ovary (CHO) cells, stably transfected
T1 sequence (Q02108 1-690): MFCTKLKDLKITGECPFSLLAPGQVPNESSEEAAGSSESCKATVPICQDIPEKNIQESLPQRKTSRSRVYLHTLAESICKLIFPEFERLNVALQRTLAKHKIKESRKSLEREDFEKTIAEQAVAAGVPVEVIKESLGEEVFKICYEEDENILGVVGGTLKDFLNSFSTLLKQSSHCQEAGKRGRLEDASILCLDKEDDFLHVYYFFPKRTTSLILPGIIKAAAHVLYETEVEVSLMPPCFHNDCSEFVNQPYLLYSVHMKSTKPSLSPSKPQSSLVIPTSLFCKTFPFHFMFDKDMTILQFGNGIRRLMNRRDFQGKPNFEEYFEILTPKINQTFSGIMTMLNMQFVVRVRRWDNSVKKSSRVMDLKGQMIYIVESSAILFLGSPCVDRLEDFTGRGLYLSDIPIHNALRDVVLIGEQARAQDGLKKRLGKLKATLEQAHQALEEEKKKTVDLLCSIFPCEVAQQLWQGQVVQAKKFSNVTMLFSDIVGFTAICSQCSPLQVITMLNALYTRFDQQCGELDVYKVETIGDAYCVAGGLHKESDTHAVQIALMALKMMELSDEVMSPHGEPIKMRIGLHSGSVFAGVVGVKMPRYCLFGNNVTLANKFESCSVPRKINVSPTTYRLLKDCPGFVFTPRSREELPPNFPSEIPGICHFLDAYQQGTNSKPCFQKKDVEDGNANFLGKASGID
T1 sequence (Q02153 1-619): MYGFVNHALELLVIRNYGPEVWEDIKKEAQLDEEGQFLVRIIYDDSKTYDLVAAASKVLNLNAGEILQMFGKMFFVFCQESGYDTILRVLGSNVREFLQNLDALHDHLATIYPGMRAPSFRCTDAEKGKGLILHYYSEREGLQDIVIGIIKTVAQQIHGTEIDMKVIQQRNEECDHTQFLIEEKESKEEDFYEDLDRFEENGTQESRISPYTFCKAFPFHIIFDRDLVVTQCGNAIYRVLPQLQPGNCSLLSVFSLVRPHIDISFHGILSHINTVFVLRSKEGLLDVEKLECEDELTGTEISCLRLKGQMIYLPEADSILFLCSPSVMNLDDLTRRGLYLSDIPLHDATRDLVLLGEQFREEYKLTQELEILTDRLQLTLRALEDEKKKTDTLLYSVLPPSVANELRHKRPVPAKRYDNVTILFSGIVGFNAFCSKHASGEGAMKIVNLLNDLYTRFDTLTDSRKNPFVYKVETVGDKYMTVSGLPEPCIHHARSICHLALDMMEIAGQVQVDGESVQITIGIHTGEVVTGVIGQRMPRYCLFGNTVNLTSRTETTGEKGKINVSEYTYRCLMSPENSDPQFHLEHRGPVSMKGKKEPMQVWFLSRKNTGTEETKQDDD
Procedure: The sGC cellular activator assay is performed in the presence and absence of 50% human serum (HS) using Chinese hamster ovary cells that have been stably transfected to express the human soluble guanylate cyclase alpha 1 and beta 1 subunits (sGC). Cells are preincubated with 40 microM 1H-[1,2,4]oxadiazolo[4,3-a]quinoxalin-1-one (ODQ), an sGC inhibitor, for one h in buffer containing 0.1% bovine serum albumin and 3-isobutyl-1-methylxanthine (IBMX). Concentration response curves are prepared for test compounds in DMSO. An intermediate dilution of the compounds is performed in either buffer containing IBMX or type AB HS containing IBMX. Diluted compounds are added to cells and they are incubated at room temperature for thirty min. cGMP is measured using a CisBio homogeneous time resolved fluorescence kit and the EC50 is calculated for each compound.
Representative compounds of the present invention were tested for activity the above assay. Preferred compounds have an EC50 of <1,000 nM in the above assay and more preferred compounds have an EC50<200 nM.

| solubility at 24 h ([1]; pH 2.2, aqueous buffer) [µg/mL] | solubility at 24 h ([1]; pH 4.5, aqueous buffer) [µg/mL] | solubility at 24 h ([1]; pH 6.8, aqueous buffer) [µg/mL] | EC50 [2] [nM] | SMILES |
| --- | --- | --- | --- | --- |
| 110 (≈ 209 µM) | 82 (≈ 156 µM) | 98 (≈ 186 µM) | 42 | COc1c(C(=O)O)cnn1-c1cccc(-c2cccc(C)c2OCc2ccc3c(c2)CCN(C2COC2)C3)n1 [Compound 8] |
| 102 (≈ 171 µM) | 82 (≈ 137 µM) | 85 (≈ 142 µM) | 29 | Cc1cccc(-c2cccc(-n3ncc(C(=O)O)c3OC(C)C)n2)c1OCc1ccc2c(c1C)CCN([C@H]1CCCOC1)C2 [Compound 117] |
| 94 (≈ 161 µM) | 80 (≈ 137 µM) | 84 (≈ 144 µM) | 24 | Cc1cccc(-c2cccc(-n3ncc(C(=O)O)c3OC(C)C)n2)c1OCc1ccc2c(c1)CCN([C@@H]1CCCOC1)C2 [Compound 113] |
| 99 (≈ 163 µM) | 81 (≈ 133 µM) | 82 (≈ 135 µM) | 110 | COc1c(C(=O)O)cnn1-c1cccc(-c2cccc(C)c2OCc2ccc3c(c2)CCN([C@H]2CC[C@]4(CCCO4)CC2)C3)n1 [Compound 102] |
| 110 (≈ 193 µM) | 89 (≈ 157 µM) | 93 (≈ 164 µM) | 460 | CC(C)Oc1c(C(=O)O)cnn1-c1cccc(-c2ccccc2OCc2ccc3c(c2)CCN(C2CCOCC2)C3)n1 [Compound 144] |
| 100 (≈ 168 µM) | 83 (≈ 139 µM) | 82 (≈ 137 µM) | 23 | CCOc1c(C(=O)O)cnn1-c1cccc(-c2cccc(C)c2OCc2ccc3c(c2C)CCN(C2CCOCC2)CC3)n1 [Compound 162] |
| 110 (≈ 180 µM) | 97 (≈ 159 µM) | 100 (≈ 164 µM) | 54 | CC[C@H](C)Oc1c(C(=O)O)cnn1-c1cccc(-c2cccc(C)c2OCc2ccc3c(c2C)CCN(C2CCCOC2)C3)n1 (stereo partly drawn) [Compound 135] |
| 99 (≈ 178 µM) | 71 (≈ 128 µM) | 91 (≈ 164 µM) | 14 | CCOc1c(C(=O)O)cnn1-c1cccc(-c2cccc(C)c2OCc2cc(C)c3c(c2)CCN(C2COC2)C3)n1 [Compound 174] |
| 120 (≈ 205 µM) | 87 (≈ 149 µM) | 93 (≈ 159 µM) | 62 | COc1c(C(=O)O)cnn1-c1cccc(-c2cccc(C)c2OCc2ccc3c(c2C)CCN(C[C@H]2COCCO2)C3)n1 [Compound 142] |
| 89 (≈ 153 µM) | 71 (≈ 122 µM) | 43 (≈ 73.8 µM) | 68 | Cc1cccc(-c2cccc(-n3ncc(C(=O)O)c3OC(C)C)n2)c1OCc1ccc2c(c1)CCN([C@H]1CCCOC1)C2 [Compound 115] |
| 110 (≈ 193 µM) | 76 (≈ 134 µM) | 78 (≈ 137 µM) | 27 | CCOc1c(C(=O)O)cnn1-c1cccc(-c2cccc(C)c2OCc2ccc3c(c2C)CCN([C@H]2CCOC2)C3)n1 [Compound 125] |
| 110 (≈ 193 µM) | 84 (≈ 148 µM) | 92 (≈ 162 µM) | 39 | CCOc1c(C(=O)O)cnn1-c1cccc(-c2cccc(C)c2OCc2cc(C)c3c(c2)CN(C2CCOCC2)C3)n1 [Compound 118] |
| 120 (≈ 201 µM) | 99 (≈ 166 µM) | 100 (≈ 168 µM) | 27 | CCCOc1c(C(=O)O)cnn1-c1cccc(-c2cccc(C)c2OCc2ccc3c(c2C)CCN(C2CCOCC2)C3)n1 [Compound 133] |
| 100 (≈ 168 µM) | 88 (≈ 147 µM) | 79 (≈ 132 µM) | 23 | CCOc1c(C(=O)O)cnn1-c1cccc(-c2cccc(C)c2OCc2ccc3c(c2C)CCN(CC2CCCOC2)C3)n1 (stereo not drawn) [Compound 146] |
| 110 (≈ 184 µM) | 98 (≈ 164 µM) | 110 (≈ 184 µM) | 89 | CC[C@H](C)Oc1c(C(=O)O)cnn1-c1cccc(-c2cccc(C)c2OCc2ccc3c(c2C)CCN(C2CCOC2)C3)n1 (stereo partly drawn) [Compound 137] |
| 110 (≈ 203 µM) | 82 (≈ 152 µM) | 76 (≈ 141 µM) | 18 | COc1c(C(=O)O)cnn1-c1cccc(-c2cccc(C)c2OCc2ccc3c(c2)CCN(CC(C)(C)C)C3)n1 [Compound 14] |
| 130 (≈ 222 µM) | 110 (≈ 188 µM) | 120 (≈ 205 µM) | 8.4 | COc1c(C(=O)O)cnn1-c1cccc(-c2cccc(C)c2OCc2ccc3c(c2C)CCN(C[C@@H]2COCCO2)C3)n1 [Compound 139] |
| 110 (≈ 198 µM) | 78 (≈ 141 µM) | 94 (≈ 169 µM) | 110 | CCOc1c(C(=O)O)cnn1-c1cccc(-c2cccc(C)c2OCc2ccc3c(c2)CCN([C@@H]2CCOC2)C3)n1 [Compound 112] |
| 93 (≈ 168 µM) | 72 (≈ 130 µM) | 75 (≈ 135 µM) | 17 | COc1c(C(=O)O)cnn1-c1cccc(-c2cccc(C)c2OCc2ccc3c(c2C)CCN([C@H]2CCOC2)C3)n1 [Compound 105] |
| 110 (≈ 189 µM) | 94 (≈ 161 µM) | 97 (≈ 166 µM) | 12 | COc1c(C(=O)O)cnn1-c1cccc(-c2cccc(C)c2OCc2cc(C)c3c(c2C)CCN(C2CCOCC2)C3)n1 [Compound 120] |
| 120 (≈ 206 µM) | 99 (≈ 170 µM) | 100 (≈ 172 µM) | 40 | CCOc1c(C(=O)O)cnn1-c1cccc(-c2cccc(C)c2OCc2ccc3c(c2C)CCN(C2CCOCC2)C3)n1 [Compound 114] |
| 110 (≈ 198 µM) | 90 (≈ 162 µM) | 92 (≈ 166 µM) | 26 | COc1c(C(=O)O)cnn1-c1cccc(-c2cccc(C)c2OCc2ccc3c(c2)CCN(CC2(C)COC2)C3)n1 [Compound 12] |
| 110 (≈ 193 µM) | 88 (≈ 155 µM) | 97 (≈ 171 µM) | 170 | COc1c(C(=O)O)cnn1-c1cccc(-c2cccc(C)c2OCc2ccc3c(c2)CCCN(C2CCOCC2)C3)n1 [Compound 100] |
| 100 (≈ 167 µM) | 67 (≈ 112 µM) | 78 (≈ 130 µM) | 91 | COCCOc1c(C(=O)O)cnn1-c1cccc(-c2cccc(C)c2OCc2ccc3c(c2C)CCN(C2CCOC2)C3)n1 (stereo not drawn) [Compound 150] |
